“And” between values parts separate entries of the source, which are not always exact repeats. Identical values can stand only once.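 All cell lines were grown in 96-well plates and treated with compound for 48 hours. GI50 = concentration required for 50% inhibition of growth. TGI: concentration producing complete growth inhibition.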
Assays:
Assay in all cases: inhibition of tumour cell growth, NCI panel, 48 h
A498 renal = system: A498 renal
CCRF-CEM leukemia = system: CCRF-CEM leukemia
DU-145 prostate = system: DU-145 prostate
HCT-116 colon = system: HCT-116 colon
HS 578T breast = system: HS 578T breast
U251 CNS = system: U251 CNS
DMS 114 small cell lung = system: DMS 114 small cell lung
DMS 273 small cell lung = system: DMS 273 small cell lung
LXFL 529 NSCLC = system: LXFL 529 NSCLC
KM20L2 colon = system: KM20L2 colon

| SMILES | TGI (A498 renal) | TGI (CCRF-CEM leukemia) | TGI (DU-145 prostate) | TGI (HCT-116 colon) | TGI (HS 578T breast) | TGI (U251 CNS) | GI50 (A498 renal) | GI50 (CCRF-CEM leukemia) | GI50 (DU-145 prostate) | GI50 (HCT-116 colon) | GI50 (HS 578T breast) | GI50 (U251 CNS) | TGI (DMS 114 small cell lung) [µM] | TGI (DMS 273 small cell lung) [µM] | TGI (LXFL 529 NSCLC) [µM] | TGI (KM20L2 colon) [µM] |
| --- | --- | --- | --- | --- | --- | --- | --- | --- | --- | --- | --- | --- | --- | --- | --- | --- |
| COc1ccc2cc(C(C)C(=O)N3CCOC3=O)ccc2c1 (stereo unspecified) | > 100 µM | > 100 µM | > 100 µM | > 100 µM | > 100 µM | > 100 µM |  |  |  |  |  |  |  |  |  |  |
| O=c1cccc(C#CC#CC2=CCCCC2)o1 | 36.8 µM | 5.5 µM | 4.4 µM | 3.67 µM | 24.3 µM | 9.46 µM | 19800 nM | 0.649 µM | 1960 nM | 1160 nM | 5.24 µM | 4.13 µM |  |  |  |  |
| Cc1ccc(S(=O)(=O)C(C#N)c2nc3ccccc3nc2-n2ccnc2)cc1 (stereo unspecified) |  | > 100 µM |  | > 100 µM |  | > 100 µM |  |  |  |  |  |  | > 100 | > 100 | > 100 |  |
| COc1ccc(OC)c2c(C(=O)O)c(Cc3ccccc3)ccc12 | > 100 µM |  |  | > 100 µM |  | > 100 µM |  |  |  |  |  |  | > 100 | > 100 | > 100 | > 100 |
| O=C1CC2CCCC23CC2(CCN13)OCCO2 (stereo unspecified) | > 100 µM | > 100 µM |  | > 100 µM |  | > 100 µM |  |  |  |  |  |  | > 100 | > 100 | > 100 | > 100 |
| CN(C)C(=O)[C@H](O)[C@H](Cc1ccccc1)NC(=O)c1cc2cc(Cl)ccc2[nH]1 | 54.1 µM | > 100 µM | > 100 µM | > 87 µM | > 100 µM | 42.5 µM | 12100 nM | 30.2 µM | 33300 nM | 25000 nM | 27.5 µM | 17.9 µM |  |  |  |  |
| Clc1ccc2c(c1)-c1c3c(nn1-c1ccccc1)-c1ccccc1SC3O2 (stereo unspecified) | > 100 µM | > 100 µM |  | > 100 µM |  | > 100 µM |  |  |  |  |  |  | > 100 | > 100 | > 100 | > 100 |
| COc1c(C(C)C)cc2c3c1OC(=O)[C@@]31CCCC(C)(C)C1CC2 (stereo partly specified) |  | 59.7 µM |  | 29.1 µM |  | > 100 µM |  |  |  |  |  |  |  | > 100 | 49.8 | > 100 |
| O=c1cc(NC2CCN(CCCc3ccccc3)CC2)c2cc(Cl)ccc2o1 | 6.92 µM | 79.3 µM | 29.3 µM | 16.5 µM | 36 µM | 21.3 µM | 42.3 nM | 18.2 µM | 15800 nM | 4020 nM | 15.1 µM | 9.19 µM |  |  |  |  |
| CC(=O)O[C@]12CCCCCC1C1(O)C(O)CCCC[C@H]12 (stereo partly specified) |  | > 100 µM |  |  |  | > 100 µM |  |  |  |  |  |  | > 100 | > 100 | > 100 | > 100 |
| c1ccc(C2Nc3ccccc3C3OCCCC23)cc1 (stereo unspecified) | 71.9 µM | 84.8 µM |  | 87.3 µM |  | 38.3 µM |  |  |  |  |  |  | 62.4 | 97.1 | > 100 | 47.7 |
| COc1cccc(C#Cc2ccccc2C#CCCCCO)c1 | 23.8 µM | 17.4 µM | 18.9 µM | 26.4 µM | 56.9 µM | 22.3 µM | 10300 nM | 3.5 µM | 4170 nM | 12200 nM | 22.9 µM | 8.41 µM |  |  |  |  |
| CC1=C(O)C(=O)C=C2C1=CC=C1[C@@]2(C)CC[C@@]2(C)[C@@H]3C[C@](C)(C(=O)O)CC[C@]3(C)CC[C@]12C | 0.142 µM | 0.15 µM | 0.202 µM | 0.0637 µM | 3.7 µM | 0.139 µM |  |  |  |  |  |  |  |  |  |  |
| CCc1nc(C(N)=O)c(Nc2ccc(N3CCC(N4CCN(C)CC4)CC3)c(OC)c2)nc1NC1CCOCC1 | 4.41 µM and 0.6 µM and 4.9 µM | 30.1 µM and > 10 µM and 44.4 µM | 18.5 µM and > 10 µM and 17.3 µM | 14.1 µM and > 10 µM and 14.9 µM | 9.48 µM and > 2.32 µM and 11.3 µM | 19.8 µM and > 3.84 µM and 21.2 µM | 960 nM and 165 nM and 931 nM | 3.76 µM and 0.901 µM and 7.12 µM | 904 nM and 359 nM and 719 nM | 1390 nM and 340 nM and 1230 nM | 1.56 µM and 0.514 µM and 1.85 µM | 5.9 µM and 1.28 µM and 7.96 µM |  |  |  |  |
| CCn1c(SCc2ccc(C)cc2)nnc1-c1nn(-c2ccc(Cl)cc2Cl)c(-c2ccc(Cl)cc2)c1C | 7.88 µM | 13.5 µM | 13.8 µM | 10.6 µM | 18.4 µM | 11.8 µM | 1370 nM | 2.51 µM | 3300 nM | 573 nM | 3.3 µM | 0.925 µM |  |  |  |  |
| O=C(O)[C@H](NS(=O)(=O)c1ccc([N+](=O)[O-])cc1)c1ccccc1 |  | > 100 µM |  | > 100 µM |  | > 100 µM |  |  |  |  |  |  | > 100 | > 100 | > 100 | > 100 |
| CCCSc1nc(COC(=O)NC)c(COC(=O)NC)n1C | > 100 µM | 86.1 µM and > 64.3 µM |  | > 100 µM |  | > 100 µM |  |  |  |  |  |  | > 100 | > 100 | > 100 | > 100 |
| CCOC(=O)c1ccc(C)c(N=NN(C)C)c1 | > 100 µM | > 100 µM |  | > 100 µM |  | > 100 µM |  |  |  |  |  |  | > 100 | > 100 |  | > 100 |
| O=C1CCC(O)=C1N=Nc1ccccc1 | > 100 µM | > 100 µM |  | > 100 µM |  | > 100 µM |  |  |  |  |  |  | > 100 | > 100 |  |  |
| CC(C)(C)c1cc(C(O)(C(F)(F)F)C(F)(F)F)c2c(c1)C(C(F)(F)F)(C(F)(F)F)OC(C(C)(C)C)N2 (stereo unspecified) |  |  |  | 12.8 µM |  | 10.8 µM |  |  |  |  |  |  | 8.95 | 11.1 | 11.7 | 11.5 |
| COc1cc2[nH]c(C(=O)c3cc(OC)c(OC)c(OC)c3)c(N)c2cc1C#CC1CC1 | 61.1 µM | > 100 µM | > 100 µM | 85.3 µM | > 100 µM | > 100 µM | 3230 nM | 3.38 µM | 3330 nM | 2060 nM | 3.75 µM | 4.74 µM |  |  |  |  |
| O=S(=O)(Nc1cc(Sc2cccc3cccnc23)c(O)c2ccccc12)c1ccccc1 | 30.6 µM | 16 µM | 9.83 µM | 2.8 µM | 79.3 µM | 24.2 µM | 4010 nM | 0.426 µM | 828 nM | 555 nM | 3.27 µM | 0.78 µM |  |  |  |  |

Reference: PubChem BioAssay (NCI)
